Key:
TNF-α = assay: Effect on intra-articular LPS induced TNF-α in rat ankles; assay type: in vivo; details: female Lewis rats
Description: Intra-articular injection of LPS into rat ankles induces the synthesis of TNF-α, which can be measured in synovial lavage fluid. High levels of TNF-α are detectable within 2 hours. Since the joint is the site where arthritis develops, this model can rapidly determine whether an orally administered compound has an effect on an inflammatory response in the synovium.
Six female Lewis rats (150-200 g) are place in each treatment group. The animals are given vehicle (1% NaCarboxymethylcellulose-0.25% Tween 80) or Example 6 (1 mg/kg, 3 mg/kg, 10 mg/kg, and 30 mg/kg) orally. One hour later, 10 μl LPS (10 μg) is administered intra-articularly into the right ankle of each rat, while the left ankle receives 10 μL of saline. After two hours, each ankle is lavaged with 100 μL of saline. The lavage is collected and stored at −80° C. • Group#1: Vehicle (1% NaCMC-0.25% Tween 80, 1 mL, PO) • Group#2: Example 6 (free base) (1 mg/kg, 1 mL, PO) • Group#3: Example 6 (free base) (3 mg/kg, 1 mL, PO) • Group#4: Example 6 (free base) (10 mg/kg, 1 mL, PO) • Group#5: Example 6 (free base) (30 mg/kg, 1 mL, PO)
TNF-α was measured with a commercially available ELISA kit (R&D, RTA00). […] The TMED50=3 mg/kg for the compound of Example 6 in this assay.

[1] = tested on: Female Lewis rats, collagen induced arthritis; assay: Rat Collagen Induced Arthritis Efficacy Model; assay type: in vivo; details: 30 mg/kg bid, PO, 14 days
Description: Female Lewis rats ((≅190 gm, Charles River Labs) are immunized with Bovine type II collagen (2 mg/ml) emulsified with an equal volume of adjuvant (aluminum hydroxide). […]. The rats are immunized with approximately […] of the emulsion intradermally on the back neat the base of the tail. All animals are re-immunized 7 days later according to the same protocol. The rats begin to develop arthritis (characterized by swell-ling and redness of one or both ankles) from 12 to 14 days after the first immunization. The rats are equally distributed into five treatment groups at the first signs of arthritis and treatment is initiated with each rat dosed bid for 14 days.
Ankle diameter is measured with calipers 5 days a week and recorded. Data is expressed as the area under the curve (AUC) generated from the composite inflammation scores and statistical analysis performed.

SMILES | inhibition of TNF-α synthesis, as measured in the synovial lavage fluid (TNF-α; oral 1, 3, 10, 30 mg/kg, intra-articular LPS 10 μg one hour later, lavage after two hours, ELISA) | reduced inflammation (AUC of composite inflammation scores, ankle diameter) [1] [%] | TMED50 (TNF-α; oral, intra-articular LPS induced TNF-α in synovial lavage fluid) [mg/kg]
CS(=O)(=O)O.C[C@@H](n1c(N)nc2ccc(-c3[nH]c(-c4c(F)cccc4F)nc3-c3ccccc3)cc21)C(C)(C)C [Example 78, 6-[2-(2,6-Difluorophenyl)-5-phenyl-3H-imidazol-4-yl]-1-(1-(R)-methyl-2,2-dimethylpropyl)-1H-benzimidazol-2-ylamine methanesulfonate] | dose-dependent inhibition | – | –
CC(C)Cn1c(N)nc2ccc(-c3[nH]c(-c4c(F)cccc4F)nc3-c3ccccc3)cc21 [Example 6, 1-(Isobutyl)-2-amino-6-(2-(2,6-difluorophenyl)-4-phenyl-1H-imidazol-5-yl)-1H-benzimidazole] | – | 30 | 3

Source: patent US7863310B2, “Kinase inhibitors” (Eli Lilly and Company, priority 2004, dated 2011)
